Data reported in patent publication US6355617B1, “Peptide derivatives” (Syngenta Limited, priority 1996, dated 2002).

Key:
BALB/C mice = assay: Test C: Peptide stimulated DTH (delayed type hypersensitivity) in BALB/C mice; format: in vivo; settings: ovalbumin DTH footpad swelling, 3-day osmotic mini-pumps
Protocol: Test C: Peptide stimulated DTH (delayed type hypersensitivity) in BALB/C mice. […] Balb/c female mice (18-20 g), 5 per group, were immunised sub-cutaneously on the flank with 0.1 ml of an emulsion of ovalbumin (Sigma) (2 mg/ml in saline) mixed 1:1 (v/v) with complete Freunds adjurant (Sigma). Seven days later footpad thickness was determined using a dual caliper micrometer followed by a challenge in one hind footpad with a 30 μl sub-plantar injection of 1% heat-aggregated ovalbumin protein in saline. Twenty-four hours after antigen challenge, footpads were measured and the DTH response calculated as the percentage increase in footpad thickness in the injected footpad compared to contralateral control. Inhibitors were adminstered by 3-day osmotic mini-pumps (Alzet) implanted 24 hours prior to antigen challenge at doses ranging from 10 mg/kg/day to 0.1 μg/kg/day. The degree of inhibition was calculated by substracting the value for swelling of inhibitor treated footpads from that of the vehicle dosed controls, dividing by the control value and multiplying by 100%.

HLA-DR4Dw4 = target: T1, HLA-DR4Dw4 (Homo sapiens, UniProt P01903+P01911, A100K/A169T/F76Y/I96L/K127E/L162R/M171V/N62H/P40V/Q125Y/R42H/S133A/S149N/S66Y/V115G/V209L/W38E); assay: Test A: Purified HLA-DR peptide in vitro binding assay; settings: competition with biotin-FHA307-320, 48 hours incubation
T1 construct: a cDNA encoding the β chain is cloned into the transfer vector pAcUW1; made in house; host or cells: Sf21 insect cells, double-recombinant baculovirus
Protocol: Test A: Purified HLA-DR peptide in vitro binding assay. […]. At the end of the incubation period 100 μl of the incubate is transferred to Enzyme Linked ImmunoSorbant Assay (ELISA) plates (Nunc) previously coated with an anti-MHC antibody (L243-American Type Culture Collection (ATCC) HB55 as described in Lampson and Levy (1980) J. Immunol. 125, 293-299) at a concentration of 10 μg/ml for 1 hour at room temperature and blocked thereafter for 1 hour with 1% bovine serum albumin (BSA) in PBS and 0.05% Tween 20. […] The reaction is stopped by adding 2M sulphuric acid (10 μl per well) and the absorbance read at 450 nm to quantify the amount of peptide bound. The inhibitory activity-of peptides is obtained by plotting absorbance against concentration. […]
To create the double-recombinant baculovirus, a cDNA encoding the β chain is cloned into the transfer vector pAcUW1 [Weyer, U; Knight, S & Possee, R D (1990) J. Gen. […] Double-recombinant viruses are detected by spotting insect cells, infected with randomly picked viruses from the transfection, onto membranes and reacting them with a monoclonal antibody e.g. L243 which specifically recognises the HLA-DR heterodimer. Binding of the antibody to Sf21 insect cells is detected using standard flow cytometry techniques, readily available in the literature. […]

Phv-Arg-Ala-IIb-Thr-Ala-Ala-Ala-Papa-NH2 [Example 1]
dose at which active in Test C (BALB/C mice): < 0.1 mg/kg/day | concentration showing significant binding to HLA-DR4Dw4 in Test A (HLA-DR4Dw4): ≤ 0.1 µM
